≈ marks a conversion by molar mass, not a printed value. Where two headings read alike, the source gives them in different places.
Experiments:
Candida tropicalis 156 = test: Antifungal microdilution broth method, C. tropicalis; type: cell-based
How it was run: (§1)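 EUCAST-based broth microdilution with slight modifications: compounds dissolved in DMSO and diluted twofold in RPMI-1640 with L-glutamine, 2% glucose, MOPS-buffered to pH 7.0. MIC endpoints were read visually, in duplicate, valid only if parallel MICs differed by no more than one dilution step.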

[1] = test system: methicillin-resistant Staphylococcus aureus ATCC 43300, CCM 4750 (MRSA); test: Antibacterial microdilution broth method, MRSA; type: cell-based; conditions: Staphylococcus aureus
[2] = test system: ESBL-positive Klebsiella pneumoniae J 14368/08
[3] = test system: M. kansasii 6509/96 (clinical isolate); test: Antimycobacterial micromethod in Šula's medium, M. kansasii 6509/96; type: cell-based; conditions: Mycobacterium kansasii
[4] = test system: Lichtheimia corymbifera 272; test: Antifungal microdilution broth method, L. corymbifera; type: cell-based
How it was run: as §1

[5] = test system: Pseudomonas aeruginosa ATCC 27853, CCM 3955; test: Antibacterial microdilution broth method, P. aeruginosa; type: cell-based; conditions: Pseudomonas aeruginosa, P. aeruginosa
[6] = test system: Candida albicans ATCC 44859; test: Antifungal microdilution broth method, C. albicans; type: cell-based
How it was run: as §1

HepG2 cells = test: Cytotoxicity, CellTiter 96 assay; type: cell-based, human; conditions: 24 h incubation
Method: HepG2, human hepatocellular carcinoma cells (ATCC HB-8065; passage 5–8) purchased from Health Protection Agency Culture Collections (ECACC, Salisbury, UK) were cultured in Minimum Essentials Eagle Medium supplemented with 10% fetal bovine serum, 1% L-glutamine solution and non-essential amino acid solution (Sigma-Aldrich, St. Louis, MO, USA) in a humidified atmosphere containing 5% CO2 at 37 °C. For subculturing, the cells were harvested after trypsin/EDTA (Sigma-Aldrich, St. Louis, USA) treatment at 37 °C. To evaluate cytotoxicity, the cells treated with the tested substances were used as experimental groups whereas untreated HepG2 cells served as control groups.
The cells were seeded in a density of 10 000 cells per well in a 96-well plate. The following day the cells were treated with each of the tested substances dissolved in DMSO (maximal incubation concentration of DMSO was 1% v/v). The tested substances were prepared at different incubation concentrations in triplicates according to their solubility. Simultaneously, the controls representing 100% cell viability, 0% cell viability (the cells treated with 10% DMSO), no cell control and vehiculum controls were also involved in triplicates. After 24 h incubation in a humidified atmosphere containing 5% CO2 at 37 °C, the reagent from the kit CellTiter 96 AQueous One Solution Cell Proliferation Assay (CellTiter 96; Promega, Fitchburg, WI, USA) was added. After 2 h incubation at 37 °C absorbance of samples was recorded at 490 nm (TECAN, Infinita M200, Grödig, Austria). A standard toxicological parameter IC50 was calculated by nonlinear regression from a semilogarithmic plot of incubation concentration versus percentage of absorbance relative to untreated controls using GraphPad Prism software (version 6; GraphPad Software, Inc., La Jolla, CA, USA).
The CellTiter 96 assay used is based on the reduction of tetrazolium dye in living cells to formazan, which is then determined colorimetrically. This reduction is related to availability of NADH or NADPH. The decline in levels of these metabolically important compounds in the cell causes that the production of formazan is reduced. For quantitative comparison of cytotoxicity, the parameter IC50 was used.

Candida glabrata 20/I = test: Antifungal microdilution broth method, C. glabrata; type: cell-based; conditions: Nakaseomyces glabratus
How it was run: as §1

[7] = test system: Staphylococcus epidermidis H 6966/08; test: Antibacterial microdilution broth method, S. epidermidis; type: cell-based; conditions: Staphylococcus epidermidis, H6966/08
[8] = test system: Staphylococcus aureus ATCC 29213, CCM 4223; test: Antibacterial microdilution broth method, S. aureus; type: cell-based
[9] = test system: Aspergillus fumigatus 231; test: Antifungal microdilution broth method, A. fumigatus; type: cell-based
How it was run: as §1

Candida krusei E28 = test: Antifungal microdilution broth method, C. krusei; type: cell-based; conditions: Pichia kudriavzevii
How it was run: as §1

[10] = test system: Trichophyton interdigitale 445; test: Antifungal microdilution broth method, T. interdigitale; type: cell-based
How it was run: as §1

[11] = test system: Mycobacterium kansasii 235/80; test: Antimycobacterial micromethod in Šula's medium, M. kansasii 235/80; type: cell-based
[12] = test system: Klebsiella pneumoniae D 11750/08; test: Antibacterial microdilution broth method, K. pneumoniae; conditions: K. pneumoniae D 11750/08; for MIC KP 24 h: 24 h incubation; for MIC KP 48 h: 48 h incubation
[13] = 24 h incubation, read-out: MIC MRSA 24 h
[14] = 48 h incubation, read-out: MIC MRSA 48 h
[15] = 168 h, 7 days incubation at 37 °C, read-out: MIC M. kansasii 6509/96 7 d
[16] = 336 h, 14 days incubation at 37 °C, read-out: MIC M. kansasii 6509/96 14 d
[17] = 504 h, 21 days incubation at 37 °C, read-out: MIC M. kansasii 6509/96 21 d
[18] = 24 h incubation, read-out: MIC PA 24 h
[19] = 48 h incubation, read-out: MIC PA 48 h
[20] = ATCC44859, 24 h, read-out: MIC CA 24 h
[21] = ATCC44859, 48 h, read-out: MIC CA 48 h
[22] = S. epidermidis, 24 h incubation, read-out: MIC SE 24 h
[23] = S. epidermidis, 48 h incubation, read-out: MIC SE 48 h
[24] = time not stated, read-out: MIC, S. epidermidis
[25] = 24 h incubation, read-out: MIC SA 24 h
[26] = 48 h incubation, read-out: MIC SA 48 h
[27] = 235/80, 168 h, 7 days incubation at 37 °C, read-out: MIC M. kansasii 235/80 7 d
[28] = 235/80, 336 h, 14 days incubation at 37 °C, read-out: MIC M. kansasii 235/80 14 d
[29] = 235/80, 504 h, 21 days incubation at 37 °C, read-out: MIC M. kansasii 235/80 21 d

SMILES | MIC (Candida tropicalis 156; 24 h, read-out: MIC CT 24 h) [µM] | MIC (Candida tropicalis 156; 48 h, read-out: MIC CT 48 h) [µM] | MIC [1, 13] [µM] | MIC [1, 14] [µM] | MIC KP-E 24 h [2] [µM] | MIC KP-E 48 h [2] [µM] | MIC [3, 15] [µM] | MIC [3, 16] [µM] | MIC [3, 17] [µM] | MIC ([4]; 24 h, read-out: MIC LC 24 h) [µM] | MIC ([4]; 48 h, read-out: MIC LC 48 h) [µM] | MIC [5, 18] [µM] | MIC [5, 19] [µM] | MIC [6, 20] [µM] | MIC [6, 21] [µM] | IC50 (HepG2 cells) [µM] | IC50 (HepG2 cells; Homo sapiens, HepG2, 24 h) [µM] | MIC (Candida glabrata 20/I; 24 h, read-out: MIC CG 24 h) [µM] | MIC (Candida glabrata 20/I; 48 h, read-out: MIC CG 48 h) [µM] | MIC [7, 22] [µM] | further results
Cc1ccc(O)c(C=Nc2ccc(C(=O)O)cc2)c1 [1g, 4-[(2-Hydroxy-5-methylbenzylidene)amino]benzoic acid] | > 125 | > 125 | > 500 | > 500 | >500 | >500 | 500 (≈ 128 µg/mL) | 500 (≈ 128 µg/mL) | 1000 (≈ 255 µg/mL) | > 125 | > 125 | > 500 | > 500 | > 125 | > 125 | 956 | > 500 | > 125 | > 125 | 250 (≈ 63.8 µg/mL) | MIC [7, 23]: 250 µM (≈ 63.8 µg/mL); MIC [7, 24]: ≥ 250 µM; MIC [8, 25]: > 500 µM; MIC [8, 26]: > 500 µM; MIC ([9]; 24 h, read-out: MIC AF 24 h): > 125 µM; MIC ([9]; 48 h, read-out: MIC AF 48 h): > 125 µM; MIC (Candida krusei E28; 24 h, read-out: MIC CK 24 h): > 125 µM; MIC (Candida krusei E28; 48 h, read-out: MIC CK 48 h): > 125 µM; MIC ([10]; 72 h, read-out: MIC TI 72 h): > 125 µM; MIC ([10]; 120 h, read-out: MIC TI 120 h): > 125 µM; MIC [11, 27]: 500 µM (≈ 128 µg/mL); MIC [11, 28]: 500 µM (≈ 128 µg/mL); MIC [11, 29]: 500 µM (≈ 128 µg/mL); MIC KP 24 h [12]: >500 µM; MIC KP 48 h [12]: >500 µM
COc1ccc(O)c(C=Nc2ccc(C(=O)O)cc2)c1 [1h, 4-[(2-Hydroxy-5-methoxybenzylidene)amino]benzoic acid] | 500 (≈ 136 µg/mL) | 500 (≈ 136 µg/mL) | > 500 | > 500 | >500 | >500 | 500 (≈ 136 µg/mL) | 500 (≈ 136 µg/mL) | 500 (≈ 136 µg/mL) | > 500 | > 500 | > 500 | > 500 | 250 (≈ 67.8 µg/mL) | 250 (≈ 67.8 µg/mL) | 530 | > 500 | 250 (≈ 67.8 µg/mL) | 250 (≈ 67.8 µg/mL) | 500 (≈ 136 µg/mL) | MIC [7, 23]: 500 µM (≈ 136 µg/mL); MIC [7, 24]: ≥ 250 µM; MIC [8, 25]: > 500 µM; MIC [8, 26]: > 500 µM; MIC ([9]; 24 h, read-out: MIC AF 24 h): > 500 µM; MIC ([9]; 48 h, read-out: MIC AF 48 h): > 500 µM; MIC (Candida krusei E28; 24 h, read-out: MIC CK 24 h): 500 µM (≈ 136 µg/mL); MIC (Candida krusei E28; 48 h, read-out: MIC CK 48 h): 500 µM (≈ 136 µg/mL); MIC ([10]; 72 h, read-out: MIC TI 72 h): > 500 µM; MIC ([10]; 120 h, read-out: MIC TI 120 h): > 500 µM; MIC [11, 27]: 500 µM (≈ 136 µg/mL); MIC [11, 28]: 500 µM (≈ 136 µg/mL); MIC [11, 29]: 500 µM (≈ 136 µg/mL); MIC KP 24 h [12]: >500 µM; MIC KP 48 h [12]: >500 µM
